Data taken from PubChem BioAssay (NCI).
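GI50 marks 50% less growth. TGI: concentration producing complete growth inhibition.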

Assays:
Test in all cases: NCI anticancer screen, dose series, 384-well format
LOX IMVI melanoma = tested on: LOX IMVI melanoma
SNB-75 CNS = tested on: SNB-75 CNS
HCT-15 colon = tested on: HCT-15 colon
KM12 colon = tested on: KM12 colon
OVCAR-4 ovarian = tested on: OVCAR-4 ovarian
NCI-H322M lung = tested on: NCI-H322M lung
OVCAR-5 ovarian = tested on: OVCAR-5 ovarian
HOP-62 NSCLC = tested on: HOP-62 NSCLC
786-0 renal = tested on: 786-0 renal
SK-MEL-5 melanoma = tested on: SK-MEL-5 melanoma
M14 melanoma = tested on: M14 melanoma
HCT-116 colon = tested on: HCT-116 colon
ACHN renal = tested on: ACHN renal
SF-268 CNS = tested on: SF-268 CNS
IGROV1 ovarian = tested on: IGROV1 ovarian
NCI/ADR-RES ovarian = tested on: NCI/ADR-RES ovarian
CAKI-1 renal = tested on: CAKI-1 renal
HS 578T breast = tested on: HS 578T breast
SNB-19 CNS = tested on: SNB-19 CNS
RXF 393 renal = tested on: RXF 393 renal
EKVX NSCLC = tested on: EKVX NSCLC
U251 glioblastoma = tested on: U251 glioblastoma
MCF7 breast = tested on: MCF7 breast
NCI-H23 lung = tested on: NCI-H23 lung
UO-31 renal = tested on: UO-31 renal
SF-539 CNS = tested on: SF-539 CNS
OVCAR-3 ovarian = tested on: OVCAR-3 ovarian
TK-10 renal = tested on: TK-10 renal
K-562 leukemia = tested on: K-562 leukemia
UACC-62 melanoma = tested on: UACC-62 melanoma
SK-OV-3 ovarian = tested on: SK-OV-3 ovarian
COLO 205 colon = tested on: COLO 205 colon
SF-295 CNS = tested on: SF-295 CNS
MDA-MB-435 melanoma = tested on: MDA-MB-435 melanoma
DU-145 prostate = tested on: DU-145 prostate
PC-3 prostate = tested on: PC-3 prostate
NCI-H522 lung = tested on: NCI-H522 lung
A498 renal = tested on: A498 renal
SN12C renal = tested on: SN12C renal
SK-MEL-28 melanoma = tested on: SK-MEL-28 melanoma
RPMI-8226 leukemia = tested on: RPMI-8226 leukemia
BT-549 breast = tested on: BT-549 breast
NCI-H226 lung = tested on: NCI-H226 lung
MDA-MB-231 breast = tested on: MDA-MB-231 breast
MDA-MB-468 breast = tested on: MDA-MB-468 breast
A549 NSCLC = tested on: A549 NSCLC
HT29 colon = tested on: HT29 colon
HOP-92 NSCLC = tested on: HOP-92 NSCLC
MOLT-4 leukemia = tested on: MOLT-4 leukemia
HCC-2998 colon = tested on: HCC-2998 colon
NCI-H460 NSCLC = tested on: NCI-H460 NSCLC
T-47D breast = tested on: T-47D breast
UACC-257 melanoma = tested on: UACC-257 melanoma
CCRF-CEM leukemia = tested on: CCRF-CEM leukemia
SW-620 colon = tested on: SW-620 colon
HL-60(TB) leukemia = tested on: HL-60(TB) leukemia
OVCAR-8 ovarian = tested on: OVCAR-8 ovarian

C[C@H](O)C(=O)N1CCC(CCn2c(Sc3cc4c(cc3Br)OCO4)nc3c(N)ncnc32)CC1
GI50 (LOX IMVI melanoma): 327 nM
TGI (LOX IMVI melanoma): 1070 nM
GI50 (SNB-75 CNS): 1490 nM
TGI (SNB-75 CNS): 7220 nM
GI50 (HCT-15 colon): 757 nM
TGI (HCT-15 colon): 15600 nM
GI50 (KM12 colon): 318 nM
TGI (KM12 colon): 10900 nM
GI50 (OVCAR-4 ovarian): 17300 nM
TGI (OVCAR-4 ovarian): > 100000 nM
GI50 (NCI-H322M lung): 593 nM
TGI (NCI-H322M lung): 58100 nM
GI50 (OVCAR-5 ovarian): 723 nM
TGI (OVCAR-5 ovarian): > 100000 nM
GI50 (HOP-62 NSCLC): 582 nM
TGI (HOP-62 NSCLC): 27800 nM
GI50 ([…]-0 renal): 607 nM
TGI (786-0 renal): > 100000 nM
GI50 (SK-MEL-5 melanoma): 335 nM
TGI (SK-MEL-5 melanoma): 19600 nM
GI50 (M14 melanoma): 361 nM
TGI (M14 melanoma): 11800 nM
GI50 (HCT-116 colon): 518 nM
TGI (HCT-116 colon): > 100000 nM
GI50 (ACHN renal): 574 nM
TGI (ACHN renal): > 100000 nM
GI50 (SF-268 CNS): 174 nM
TGI (SF-268 CNS): 494 nM
GI50 (IGROV1 ovarian): 299 nM
TGI (IGROV1 ovarian): 1740 nM
GI50 (NCI/ADR-RES ovarian): 9820 nM
TGI (NCI/ADR-RES ovarian): 35500 nM
GI50 (CAKI-1 renal): 657 nM
TGI (CAKI-1 renal): 88800 nM
GI50 (HS 578T breast): 327 nM
TGI (HS 578T breast): 2220 nM
GI50 (SNB-19 CNS): 694 nM
TGI (SNB-19 CNS): > 100000 nM
GI50 (RXF 393 renal): 346 nM
TGI (RXF 393 renal): 26000 nM
GI50 (EKVX NSCLC): 649 nM
TGI (EKVX NSCLC): 25100 nM
GI50 (U251 glioblastoma): 395 nM
TGI (U251 glioblastoma): 1450 nM
GI50 (MCF7 breast): 286 nM
TGI (MCF7 breast): 2810 nM
GI50 (NCI-H23 lung): 214 nM
TGI (NCI-H23 lung): 640 nM
GI50 (UO-31 renal): 680 nM
TGI (UO-31 renal): 58800 nM
GI50 (SF-539 CNS): 223 nM
TGI (SF-539 CNS): 442 nM
GI50 (OVCAR-3 ovarian): 405 nM
TGI (OVCAR-3 ovarian): 3270 nM
GI50 (TK-10 renal): 522 nM
TGI (TK-10 renal): 23300 nM
GI50 (K-562 leukemia): 271 nM
TGI (K-562 leukemia): 4700 nM
GI50 (UACC-62 melanoma): 534 nM
TGI (UACC-62 melanoma): 3070 nM
GI50 (SK-OV-3 ovarian): 827 nM
TGI (SK-OV-3 ovarian): 76600 nM
GI50 (COLO 205 colon): 291 nM
TGI (COLO 205 colon): 1840 nM
GI50 (SF-295 CNS): 433 nM
TGI (SF-295 CNS): 1700 nM
GI50 (MDA-MB-435 melanoma): 1270 nM
TGI (MDA-MB-435 melanoma): > 100000 nM
GI50 (DU-145 prostate): 420 nM
TGI (DU-145 prostate): 13800 nM
GI50 (PC-3 prostate): 655 nM
TGI (PC-3 prostate): 4010 nM
GI50 (NCI-H522 lung): 203 nM
TGI (NCI-H522 lung): 410 nM
GI50 (A498 renal): 901 nM
TGI (A498 renal): > 100000 nM
GI50 (SN12C renal): 333 nM
TGI (SN12C renal): 1840 nM
GI50 (SK-MEL-28 melanoma): 589 nM
TGI (SK-MEL-28 melanoma): 31200 nM
GI50 (RPMI-8226 leukemia): 472 nM
TGI (RPMI-8226 leukemia): 2530 nM
GI50 (BT-549 breast): 410 nM
TGI (BT-549 breast): 2820 nM
GI50 (NCI-H226 lung): 568 nM
TGI (NCI-H226 lung): 7660 nM
GI50 (MDA-MB-231 breast): 537 nM
TGI (MDA-MB-231 breast): 7360 nM
GI50 (MDA-MB-468 breast): 294 nM
TGI (MDA-MB-468 breast): 743 nM
GI50 (A549 NSCLC): 318 nM
TGI (A549 NSCLC): > 100000 nM
GI50 (HT29 colon): 337 nM
TGI (HT29 colon): 20300 nM
GI50 (HOP-92 NSCLC): 624 nM
TGI (HOP-92 NSCLC): 2370 nM
GI50 (MOLT-4 leukemia): 122 nM
TGI (MOLT-4 leukemia): 268 nM
GI50 (HCC-2998 colon): 127 nM
TGI (HCC-2998 colon): 478 nM
GI50 (NCI-H460 NSCLC): 275 nM
TGI (NCI-H460 NSCLC): 745 nM
GI50 (T-47D breast): 344 nM
TGI (T-47D breast): 1500 nM
GI50 (UACC-257 melanoma): 4380 nM
TGI (UACC-257 melanoma): 31000 nM
GI50 (CCRF-CEM leukemia): 229 nM
TGI (CCRF-CEM leukemia): 783 nM
GI50 (SW-620 colon): 303 nM
TGI (SW-620 colon): 2550 nM
GI50 (HL-60(TB) leukemia): 248 nM
TGI (HL-60(TB) leukemia): 523 nM
GI50 (OVCAR-8 ovarian): 272 nM
TGI (OVCAR-8 ovarian): 707 nM
